Reference: patent US20040014676A1, “SRC kinase inhibitors useful for treating osteoporosis” (priority 2001, published 2004)

Target: T1, Src kinase (Homo sapiens, UniProt P12931)
T1 construct: purchased Upstate Bioteolnology (sic; Upstate Biotechnology); later HMR stock 27597-019E1 #14-117
Test: Phosphorylation assay of Src kinase inhibitors (radiometric, 96 well filter plate)
Format: biochemical
Conditions: duplicates, tested in the range of 400-0.098 µM; 10 µM peptide substrate (FIYGAFKKKKNH2), 5 µM unlabeled ATP, room temperature 30 min; read-out: IC50
Protocol: The present invention provides novel compounds of Formulae I through XVIII discussed above. The following compounds which fall within Formulae I through XVIII are characterized by structure, IUPAC name and activity using phosphorylation assay for protein tyrosine Src kinase.
Phosphorylation Assay of Src Kinase Inhibitors
The activity of Src kinase was measured in a 96 well plate phosphorylation assay where the transfer of gamma phosphate from ATP to peptide substrate was measured radiometrically. […] Ki values were determined experimentally for some of the inhibitors. The phosphocellulose filter plates (Millipore catalog #MAPH NOB) were prewet prior to the phosphorylation assay by addition of 100 1 per well of 30 mM MES buffer+0.4 mg/ml BSA. After a 20-minute incubation, the buffer was removed completely via a Millipore vacuum manifold. The phosphorylation assay was then set up in the filter plates in a total volume per well of 60 1. The 60 1 consisted of compound (see concentration ranges above), a 1:100 dilution of Src kinase (originally Upstate Bioteolnology, #14-117; later HMR stock 27597-019E1) or assay buffer alone (for no enzyme control wells), 10 M peptide substrate (FIYGAFKKKKNH2), 5 M unlabeled ATP and a 1:500 dilution of P-ATP (New England Nuclear, catalog #NEG-602H, 2000 Ci/mmol). The reaction was mixed and incubated at room temperature for 30 min. The kinase reactions were stopped by addition of 150 mM H3PO4 and incubated for 10 minutes. The filter plate wells were filtered and washed seven times with 200 1 per well of 150 mM H3PO4. Finally, the filter plate was placed into a Packard plate adapter (Packard catalog #600517B), 35 1 of Microscint-20 (Packard catalog #6013621) was added to each well, the plate was sealed (TopSeal A sealers; Packard catalog #6005185) and counted on a Packard TopCount.

T1 sequence (P12931 whole entry): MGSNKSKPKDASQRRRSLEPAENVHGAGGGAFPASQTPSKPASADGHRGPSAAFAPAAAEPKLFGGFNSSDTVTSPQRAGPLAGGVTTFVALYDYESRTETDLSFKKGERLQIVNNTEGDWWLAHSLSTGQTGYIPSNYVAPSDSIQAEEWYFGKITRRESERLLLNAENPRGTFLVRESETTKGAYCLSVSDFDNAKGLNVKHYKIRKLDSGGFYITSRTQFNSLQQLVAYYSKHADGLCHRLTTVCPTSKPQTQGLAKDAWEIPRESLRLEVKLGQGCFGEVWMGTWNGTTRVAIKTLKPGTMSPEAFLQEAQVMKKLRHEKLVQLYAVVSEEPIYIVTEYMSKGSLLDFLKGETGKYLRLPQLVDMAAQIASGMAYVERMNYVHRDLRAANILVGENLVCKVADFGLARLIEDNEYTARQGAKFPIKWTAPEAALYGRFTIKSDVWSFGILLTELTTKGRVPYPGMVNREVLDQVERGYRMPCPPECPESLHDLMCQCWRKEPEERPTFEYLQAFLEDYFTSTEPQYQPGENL

| SMILES | IC50 [nM] |
| --- | --- |
| NC(=O)CNC(=O)c1cc2ccccc2cc1OCCCCNC(=O)[C@@H](N)Cc1ccc(Cl)cc1 [Example 42, 3-[[4-[(2(S)-AMINO-3-(4-CHLORO- PHENYL)-1-OXO)PROPYL]AMINO]- BUTOXY]-NAPHTHALENE-2- (N-ACETAMIDO)CARBOXAMIDE] | 880 |
| NC(=O)CNC(=O)c1cc2ccccc2cc1OCCCCNC(=O)[C@@H](N)Cc1c(F)c(F)c(F)c(F)c1F [Example 43, 3-[[4-[[2(S)-AMINO-3-(2,3,4,5,6- PENTAFLUORO)PHENYL-1-OXO]- PROPYL]AMINO]BUTOXY]- NAPHTHALENE-2- (N-ACETAMIDO)CARBOXAMIDE] | 1380 |
| NC(=O)CNC(=O)c1cc2ccccc2cc1OCCCCNC(=O)[C@@H](N)Cc1csc2ccccc12 [Example 44, 3-[[4-[[2(S)-AMINO-3(BENZOTHIOPHEN- 3-YL)-1-OXO]PROPYL]AMINO]- BUTOXY]-NAPHTHALENE-2- (N-ACETAMIDO)CARBOXAMIDE] | 230 |
| NC(=O)CNC(=O)c1cc2ccccc2cc1OCCCCNC(=O)[C@@H](N)Cc1ccc([N+](=O)[O-])cc1 [Example 45, 3-[[4-[[2(S)-AMINO-3(4-NITROPHENYL)- 1-OXO]PROPYL]AMINO]BUTOXY]- NAPHTHALENE-2-(N-ACETAMIDO)- CARBOXAMIDE] | 1470 |
| NC(=O)CNC(=O)c1cc2ccccc2cc1OCCCCNC(=O)[C@@H](N)Cc1ccc(O)c(I)c1 [Example 46, 3-[[4-[[2(S)-AMINO-3(3-IODO-4- HYDROXYPHENYL)-1-OXO]PROPYL]- AMINO]BUTOXY]-NAPHTHALENE-2- (N-ACETAMIDO)CARBOXAMIDE] | 310 |
| NC(=O)CNC(=O)c1cc2ccccc2cc1OCCCCNC(=O)[C@@H](N)Cc1ccccn1 [Example 47, 3-[[4-[[2(S)-AMINO-3(PYRIDIN-2-YL)-1- OXO]PROPYL]AMINO]BUTOXY]- NAPHTHALENE-2-(N-ACETAMIDO)- CARBOXAMIDE] | 17000 |
| NC(=O)CNC(=O)c1cc2ccccc2cc1OCCCCNC(=O)[C@@H](N)Cc1cccnc1 [Example 48, 3-[[4-[[2(S)-AMINO-3-(PYRIDIN-3-YL)-1- OXO]PROPYL]AMINO]BUTOXY]- NAPHTHALENE-2-(N-ACETAMIDO)- CARBOXAMIDE] | 9600 |
| NC(=O)CNC(=O)c1cc2ccccc2cc1OCCCCNC(=O)[C@@H](N)CC1CCCCC1 [Example 49, 3-[[4-[[2(S)-AMINO-3(CYCLOHEXYL)-1- OXO]PROPYL]AMINO]BUTOXY]- NAPHTHALENE-2-(N-ACETAMIDO)- CARBOXAMIDE] | 920 |
| NC(=O)CNC(=O)c1cc2ccccc2cc1OCCCCNC(=O)[C@@H](N)C1CCCCC1 [Example 50, 3-[[[4-(2(S)-AMINO-2-CYCLOHEXYL-1- OXO)ETHYL]AMINO]BUTOXY]- NAPHTHALENE-2-(N-ACETAMIDO)- CARBOXAMIDE] | 2000 |
| NC(=O)CNC(=O)c1cc2ccccc2cc1OCCCCNC(=O)[C@@H](N)Cc1csc2ccccc12 [Example 51, 3-[[4-[[2(S)-AMINO-3-(BENZO- THIOPHEN-3-YL)-1-OXO]PROPYL]- AMINO]BUTOXY]-NAPHTHALENE-2- (N-ACETAMIDO)CARBOXAMIDE] | 100 |
| NC(=O)CNC(=O)c1cc2ccccc2cc1OCCCCNC(=O)C(N)C1Cc2ccccc2C1 (stereo not shown) [Example 52, 3-[4-[N-[1-OXO-2-AMINO-2-(INDAN-2- YL)]ETHYL]-AMINOBUTOXY]- NAPHTHALENE-2-(N-ACETAMIDO)- CARBOXAMIDE] | 1560 |
| NC(=O)CNC(=O)c1cc2ccccc2cc1OCCCCNC(=O)[C@H](N)Cc1ccccc1 [Example 53, 3-[4-[[[2(R)-AMINO-3-PHENYL-1- OXO]PROPYL]AMINO]BUTOXY]- NAPHTHALENE-2-(N-ACETAMIDO)- CARBOXAMIDE] | 1400 |
| NC(=O)CNC(=O)c1cc2ccccc2cc1OCCCCNC(=O)[C@@H](N)Cc1ccc(O)c([N+](=O)[O-])c1 [Example 54, 3-[4-[[[2(S)-AMINO-3-(3-NITRO-4- HYDROXY)PHENYL-1-OXO]PROPYL]- AMINO]BUTOXY]-NAPHTHALENE-2- (N-ACETAMIDO)CARBOXAMIDE] | 660 |
| NC(=O)CNC(=O)c1cc2ccccc2cc1OCCCCNC(=O)[C@@H](N)Cc1cccs1 [Example 55, 3-[4-[[[2(S)-AMINO-3-(THIOPHEN-2-YL)- 1-OXO]PROPYL]AMINO]BUTOXY]- NAPHTHALENE-2-(N-ACETAMIDO)- CARBOXAMIDE] | 1350 |
| NC(=O)CNC(=O)c1cc2ccccc2cc1OCCCCNC(=O)[C@H](N)Cc1ccc(O)cc1 [Example 56, 3-[4-[[[2(R)-AMINO-3-(4-HYDROXY- PHENYL-1-OXO]PROPYL]AMINO]- BUTOXY]-NAPHTHALENE-2-(N- ACETAMIDO)CARBOXAMIDE] | 50000 |
| NC(=O)CNC(=O)c1cc2ccccc2cc1OCCCCNC(=O)[C@@H](N)Cc1cccc2ccccc12 [Example 57, 3-[4-[[[2(S)-AMINO-3-(NAPHTH-1-YL)-1- OXO]PROPYL]AMINO]BUTOXY]- NAPHTHALENE-2-(N-ACETAMIDO)- CARBOXAMIDE] | 370 |

| SMILES | IC50 [nM] |
| --- | --- |
| NC(=O)CNC(=O)c1cc2ccccc2cc1OCCCCNC(=O)[C@@H](N)Cc1cccc(F)c1 [Example 59, 3-[4-[[[2(S)-AMINO-3-(3-FLUORO- PHENYL)-1-OXO]PROPYL]AMINO]- BUTOXY]-NAPHTHALENE-2-(N- ACETAMIDO)CARBOXAMIDE] | 490 |
| CC(c1ccc(Cl)c(Cl)c1)[C@H](N)C(=O)NCCCCOc1cc2ccccc2cc1C(=O)NCC(N)=O (stereo partly drawn) [Example 60, 3-[4-[[[2(S)-AMINO-3(3,4-DICHLORO- PHENYL)-1-OXO]BUTYL]AMINO]- BUTOXY]-NAPHTHALENE-2-(N- ACETAMIDO)CARBOXAMIDE] | 1560 |
| NC(=O)CNC(=O)c1cc2ccccc2cc1OCCCCNC(=O)[C@@H](N)Cc1ccc(Br)cc1 [Example 61, 3-[4-[[[1-OXO-2(S)-AMINO-3(4- BROMOPHENYL)]PROPYL]AMINO]- BUTOXY]-NAPHTHALENE-2-(N- ACETAMIDO)CARBOXAMIDE] | 500 |
| NC(=O)CNC(=O)c1cc2ccccc2cc1OCCCCNC(=O)[C@@H](N)Cc1ccc(I)cc1 [Example 62, 3-[4-[[[1-OXO-2(S)-AMINO-3(4- IODOPHENYL)]PROPYL]AMINO]- BUTOXY]-NAPHTHALENE-2-(N- ACETAMIDO)CARBOXAMIDE] | 6250 |
| NC(=O)CNC(=O)c1cc2ccccc2cc1OCCCCNC(=O)[C@H](N)CSCc1ccccc1 [Example 63, 3-[4-[[[1-OXO-2(S)-AMINO- 3(BENZYLMERCAPTO)]PROPYL]- AMINO]BUTOXY]-NAPHTHALENE-2- (N-ACETAMIDO)CARBOXAMIDE] | 2230 |
| NCC(=O)NCCCCOc1cc2ccccc2cc1C(=O)NCC(N)=O [Example 64, 3-[4-[[(1-OXO-2-AMINO)ETHYL]- AMINO]BUTOXY]-NAPHTHALENE-2- (N-ACETAMIDO)CARBOXAMIDE] | 68000 |
| C[C@H](N)C(=O)NCCCCOc1cc2ccccc2cc1C(=O)NCC(N)=O [Example 65, 3-[4-[[(1-OXO-2(S)-AMINO)PROPYL]- AMINO]BUTOXY]-NAPHTHALENE-2- (N-ACETAMIDO)CARBOXAMIDE] | 101000 |
| CC(C)(C)C(=O)NCCCCOc1cc2ccccc2cc1C(=O)NCC(N)=O [Example 66, 3-[4-[[(1-OXO-2,2-DIMETHYL)PROPYL]- AMINO]BUTOXY]-NAPHTHALENE-2- (N-ACETAMIDO)CARBOXAMIDE] | 6000 |
| CN[C@@H](Cc1ccccc1)C(=O)NCCCCOc1cc2ccccc2cc1C(=O)NCC(N)=O [Example 67, 3-[4-[[(1-OXO-2(S)-METHYLAMINO-3- PHENYL)PROPYL]AMINO]BUTOXY]- NAPHTHALENE-2-(N-ACETAMIDO)- CARBOXAMIDE] | 2300 |
| CN(C)[C@@H](Cc1ccccc1)C(=O)NCCCCOc1cc2ccccc2cc1C(=O)NCC(N)=O [Example 68] | 50000 |
| C[N+](C)(C)[C@@H](Cc1ccccc1)C(=O)NCCCCOc1cc2ccccc2cc1C(=O)NCC(N)=O [Example 69] | 14000 |
| NC(=O)CC[C@H](N)C(=O)NCCCCOc1cc2ccccc2cc1C(=O)NCC(N)=O [Example 70, 3-[4-[[(1-OXO-2(S)-AMINO-4-AMINO- CARBONYL)BUTYL]AMINO]BUTOXY]- NAPHTHALENE-2-(N-ACETAMIDO)- CARBOXAMIDE] | 370000 |
| NC(=O)CNC(=O)c1cc2ccccc2cc1OCCCCNC(=O)CNCc1cccc2ccccc12 [Example 71] | 6000 |
| NC(=O)CNC(=O)c1cc2ccccc2cc1OCCCCNC(=O)[C@H](Cc1ccc(O)cc1)NC=O [Example 72, 3-[4-[[[1-OXO-2-(N-FORMYLAMINO)-3- (4-HYDROXYPHENYL)]PROPYL]- (S)AMINO]BUTOXY]-NAPHTHALENE- 2-(N-ACETAMIDO)CARBOXAMIDE] | 6000 |
| N=C(N)N[C@@H](Cc1ccc(O)cc1)C(=O)NCCCCOc1cc2ccccc2cc1C(=O)NCC(N)=O [Example 73, 3-[4-[[[(1-OXO-2-[(N-AMINOIMINO- METHYL)(S)AMINO]-3-(4-HYDROXY- PHENYL)]PROPYL]AMINO]BUTOXY]- NAPHTHALENE-2-(N-ACETAMIDO)- CARBOXAMIDE] | 6000 |
